Data taken from PubChem BioAssay (NCI).
“And” between values parts separate entries of the source, which are not always exact repeats. Equal values may be shown once.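 Growth conditions: 96-well plates. Treatment: test compound, 48 hours, 5 concentrations. Analysis: linear interpolation between bracketing concentrations; unreached endpoints set to highest concentration. Definition used: TGI = concentration required for complete inhibition of growth.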

The molecules below were run on MDA-N (assay: NCI tumour cell line growth inhibition, 48 h).

Q: With CC(C)Cn1cnc2c(Sc3c([N+](=O)[O-])ncn3C)nc(N)nc21 as the molecule, how does the TGI read?
A: Its TGI is > 100 µM.

What follows are molecules tested on K-562 leukemia (assay: NCI tumour cell line growth inhibition, 48 h).

Q: How did the TGI turn out when COc1cc2c(cc1OC)-c1cc(OC)c(OC)cc1[C@H]1CN3CCC[C@@]3(O)C=C21 was run?
A: Its TGI is 0.101 µM and 0.0521 µM.

Q: C=C[C@]1(C)CC(O)C2C(=C)C(=O)OC2[C@H]1C(=C)C=O (some centres undefined) was tested. Which TGI did it give?
A: The TGI was 8.52 µM.

Q: Which TGI does the source give for C#CCC(O)c1ccccc1C(O)CC#C (centres undefined) here?
A: The TGI was > 100 µM.

Q: COc1nc(=O)cc(N)n1C1OC(CO)C(O)C1O (centres undefined) was tested. Which TGI did it give?
A: Its TGI is > 100 µM.

Q: CC(C)Cn1cnc2c(Sc3c([N+](=O)[O-])ncn3C)nc(N)nc21 was tested. Which TGI did it give?
A: Its TGI is > 100 µM.

Each molecule was assayed on TK-10 renal (assay: NCI tumour cell line growth inhibition, 48 h).

Q: Which TGI does the source give for COc1cc2c(cc1OC)-c1cc(OC)c(OC)cc1[C@H]1CN3CCC[C@@]3(O)C=C21 here?
A: The TGI was 0.161 µM.

Q: With C=C[C@]1(C)CC(O)C2C(=C)C(=O)OC2[C@H]1C(=C)C=O (some centres undefined) as the molecule, how does the TGI read?
A: The TGI was 11.4 µM.

Q: How did the TGI turn out when C#CCC(O)c1ccccc1C(O)CC#C (centres undefined) was run?
A: Its TGI is > 100 µM.

Q: COc1nc(=O)cc(N)n1C1OC(CO)C(O)C1O (centres undefined) was tested. Which TGI did it give?
A: Its TGI is > 100 µM.

Q: With CC(C)Cn1cnc2c(Sc3c([N+](=O)[O-])ncn3C)nc(N)nc21 as the molecule, how does the TGI read?
A: Its TGI is > 100 µM.

What follows are molecules tested on HCC-2998 colon (assay: NCI tumour cell line growth inhibition, 48 h).

Q: With COc1cc2c(cc1OC)-c1cc(OC)c(OC)cc1[C@H]1CN3CCC[C@@]3(O)C=C21 as the molecule, how does the TGI read?
A: Its TGI is 0.0437 µM.

Q: How did the TGI turn out when C=C[C@]1(C)CC(O)C2C(=C)C(=O)OC2[C@H]1C(=C)C=O (some centres undefined) was run?
A: Its TGI is 27.9 µM.

Q: How did the TGI turn out when C#CCC(O)c1ccccc1C(O)CC#C (centres undefined) was run?
A: The TGI was > 100 µM.

Q: How did the TGI turn out when COc1nc(=O)cc(N)n1C1OC(CO)C(O)C1O (centres undefined) was run?
A: The TGI was > 100 µM.

Q: CC(C)Cn1cnc2c(Sc3c([N+](=O)[O-])ncn3C)nc(N)nc21 was tested. Which TGI did it give?
A: The TGI was > 100 µM.

The molecules below were run on DMS 114 small cell lung (assay: NCI tumour cell line growth inhibition, 48 h).

Q: Which TGI does the source give for COc1cc2c(cc1OC)-c1cc(OC)c(OC)cc1[C@H]1CN3CCC[C@@]3(O)C=C21 here?
A: The TGI was 0.00117 µM.

Q: With C=C[C@]1(C)CC(O)C2C(=C)C(=O)OC2[C@H]1C(=C)C=O (some centres undefined) as the molecule, how does the TGI read?
A: The TGI was 22.6 µM.

Q: C#CCC(O)c1ccccc1C(O)CC#C (centres undefined) was tested. Which TGI did it give?
A: The TGI was > 100 µM.

Q: Which TGI does the source give for COc1nc(=O)cc(N)n1C1OC(CO)C(O)C1O (centres undefined) here?
A: The TGI was > 100 µM.

Q: CC(C)Cn1cnc2c(Sc3c([N+](=O)[O-])ncn3C)nc(N)nc21 was tested. Which TGI did it give?
A: The TGI was > 100 µM.

What follows are molecules tested on U251 CNS (assay: NCI tumour cell line growth inhibition, 48 h).

Q: C=C[C@]1(C)CC(O)C2C(=C)C(=O)OC2[C@H]1C(=C)C=O (some centres undefined) was tested. Which TGI did it give?
A: Its TGI is 24.8 µM.

Q: COc1nc(=O)cc(N)n1C1OC(CO)C(O)C1O (centres undefined) was tested. Which TGI did it give?
A: Its TGI is > 100 µM.

Q: For CC(C)Cn1cnc2c(Sc3c([N+](=O)[O-])ncn3C)nc(N)nc21, which TGI is on record?
A: The TGI was > 100 µM.

Each molecule was assayed on OVCAR-4 ovarian (assay: NCI tumour cell line growth inhibition, 48 h).

Q: Which TGI does the source give for COc1cc2c(cc1OC)-c1cc(OC)c(OC)cc1[C@H]1CN3CCC[C@@]3(O)C=C21 here?
A: The TGI was 0.0032 µM and 0.0117 µM.

Q: C=C[C@]1(C)CC(O)C2C(=C)C(=O)OC2[C@H]1C(=C)C=O (some centres undefined) was tested. Which TGI did it give?
A: Its TGI is 17.7 µM.

Q: For C#CCC(O)c1ccccc1C(O)CC#C (centres undefined), which TGI is on record?
A: The TGI was > 100 µM.

Q: CC(C)Cn1cnc2c(Sc3c([N+](=O)[O-])ncn3C)nc(N)nc21 was tested. Which TGI did it give?
A: The TGI was > 100 µM.

What follows are molecules tested on SF-539 CNS (assay: NCI tumour cell line growth inhibition, 48 h).

Q: How did the TGI turn out when C=C[C@]1(C)CC(O)C2C(=C)C(=O)OC2[C@H]1C(=C)C=O (some centres undefined) was run?
A: Its TGI is 10.5 µM.

Q: COc1nc(=O)cc(N)n1C1OC(CO)C(O)C1O (centres undefined) was tested. Which TGI did it give?
A: Its TGI is > 100 µM.

Q: CC(C)Cn1cnc2c(Sc3c([N+](=O)[O-])ncn3C)nc(N)nc21 was tested. Which TGI did it give?
A: The TGI was > 100 µM.

Each molecule was assayed on SW-620 colon (assay: NCI tumour cell line growth inhibition, 48 h).

Q: For C=C[C@]1(C)CC(O)C2C(=C)C(=O)OC2[C@H]1C(=C)C=O (some centres undefined), which TGI is on record?
A: The TGI was 4.19 µM.

Q: C#CCC(O)c1ccccc1C(O)CC#C (centres undefined) was tested. Which TGI did it give?
A: Its TGI is > 100 µM.

Q: With COc1nc(=O)cc(N)n1C1OC(CO)C(O)C1O (centres undefined) as the molecule, how does the TGI read?
A: The TGI was > 100 µM.

Q: With CC(C)Cn1cnc2c(Sc3c([N+](=O)[O-])ncn3C)nc(N)nc21 as the molecule, how does the TGI read?
A: The TGI was > 100 µM.

What follows are molecules tested on SN12C renal (assay: NCI tumour cell line growth inhibition, 48 h).

Q: C=C[C@]1(C)CC(O)C2C(=C)C(=O)OC2[C@H]1C(=C)C=O (some centres undefined) was tested. Which TGI did it give?
A: Its TGI is 5.88 µM.

Q: With C#CCC(O)c1ccccc1C(O)CC#C (centres undefined) as the molecule, how does the TGI read?
A: Its TGI is > 100 µM.

Q: How did the TGI turn out when COc1nc(=O)cc(N)n1C1OC(CO)C(O)C1O (centres undefined) was run?
A: The TGI was > 100 µM.

Q: Which TGI does the source give for CC(C)Cn1cnc2c(Sc3c([N+](=O)[O-])ncn3C)nc(N)nc21 here?
A: The TGI was > 100 µM.

Each molecule was assayed on KM20L2 colon (assay: NCI tumour cell line growth inhibition, 48 h).

Q: With C=C[C@]1(C)CC(O)C2C(=C)C(=O)OC2[C@H]1C(=C)C=O (some centres undefined) as the molecule, how does the TGI read?
A: Its TGI is 17.4 µM.

Q: With C#CCC(O)c1ccccc1C(O)CC#C (centres undefined) as the molecule, how does the TGI read?
A: The TGI was > 100 µM.

Q: With COc1nc(=O)cc(N)n1C1OC(CO)C(O)C1O (centres undefined) as the molecule, how does the TGI read?
A: The TGI was > 100 µM.

Q: How did the TGI turn out when CC(C)Cn1cnc2c(Sc3c([N+](=O)[O-])ncn3C)nc(N)nc21 was run?
A: The TGI was > 100 µM.

The molecules below were run on 786-0 renal (assay: NCI tumour cell line growth inhibition, 48 h).

Q: With C=C[C@]1(C)CC(O)C2C(=C)C(=O)OC2[C@H]1C(=C)C=O (some centres undefined) as the molecule, how does the TGI read?
A: Its TGI is 4.47 µM.

Q: For C#CCC(O)c1ccccc1C(O)CC#C (centres undefined), which TGI is on record?
A: Its TGI is > 100 µM.

Q: How did the TGI turn out when COc1nc(=O)cc(N)n1C1OC(CO)C(O)C1O (centres undefined) was run?
A: The TGI was > 100 µM.

Q: CC(C)Cn1cnc2c(Sc3c([N+](=O)[O-])ncn3C)nc(N)nc21 was tested. Which TGI did it give?
A: The TGI was > 100 µM.

Each molecule was assayed on RPMI-8226 leukemia (assay: NCI tumour cell line growth inhibition, 48 h).

Q: With C=C[C@]1(C)CC(O)C2C(=C)C(=O)OC2[C@H]1C(=C)C=O (some centres undefined) as the molecule, how does the TGI read?
A: Its TGI is 5.94 µM.

Q: For C#CCC(O)c1ccccc1C(O)CC#C (centres undefined), which TGI is on record?
A: The TGI was > 100 µM.

Q: For COc1nc(=O)cc(N)n1C1OC(CO)C(O)C1O (centres undefined), which TGI is on record?
A: The TGI was > 100 µM.

Q: Which TGI does the source give for CC(C)Cn1cnc2c(Sc3c([N+](=O)[O-])ncn3C)nc(N)nc21 here?
A: The TGI was > 100 µM.

These molecules were tested on LXFL 529 NSCLC (assay: NCI tumour cell line growth inhibition, 48 h).

Q: How did the TGI turn out when C=C[C@]1(C)CC(O)C2C(=C)C(=O)OC2[C@H]1C(=C)C=O (some centres undefined) was run?
A: The TGI was 3.47 µM.

Q: For C#CCC(O)c1ccccc1C(O)CC#C (centres undefined), which TGI is on record?
A: The TGI was > 100 µM.

Q: For COc1nc(=O)cc(N)n1C1OC(CO)C(O)C1O (centres undefined), which TGI is on record?
A: Its TGI is > 100 µM.

Q: CC(C)Cn1cnc2c(Sc3c([N+](=O)[O-])ncn3C)nc(N)nc21 was tested. Which TGI did it give?
A: Its TGI is > 100 µM.

Each molecule was assayed on MOLT-4 leukemia (assay: NCI tumour cell line growth inhibition, 48 h).

Q: For C=C[C@]1(C)CC(O)C2C(=C)C(=O)OC2[C@H]1C(=C)C=O (some centres undefined), which TGI is on record?
A: Its TGI is 21.8 µM.

Q: C#CCC(O)c1ccccc1C(O)CC#C (centres undefined) was tested. Which TGI did it give?
A: Its TGI is > 100 µM.

Q: With COc1nc(=O)cc(N)n1C1OC(CO)C(O)C1O (centres undefined) as the molecule, how does the TGI read?
A: Its TGI is > 100 µM.

Q: How did the TGI turn out when CC(C)Cn1cnc2c(Sc3c([N+](=O)[O-])ncn3C)nc(N)nc21 was run?
A: The TGI was > 100 µM.

Each molecule was assayed on RXF 393 renal (assay: NCI tumour cell line growth inhibition, 48 h).

Q: For COc1cc2c(cc1OC)-c1cc(OC)c(OC)cc1[C@H]1CN3CCC[C@@]3(O)C=C21, which TGI is on record?
A: Its TGI is 0.0126 µM.

Q: With C=C[C@]1(C)CC(O)C2C(=C)C(=O)OC2[C@H]1C(=C)C=O (some centres undefined) as the molecule, how does the TGI read?
A: Its TGI is 4.83 µM.

Q: Which TGI does the source give for C#CCC(O)c1ccccc1C(O)CC#C (centres undefined) here?
A: The TGI was 95.2 µM.

Q: Which TGI does the source give for COc1nc(=O)cc(N)n1C1OC(CO)C(O)C1O (centres undefined) here?
A: Its TGI is > 100 µM.

Q: CC(C)Cn1cnc2c(Sc3c([N+](=O)[O-])ncn3C)nc(N)nc21 was tested. Which TGI did it give?
A: Its TGI is > 100 µM.
